# In patent US7601746B2 (Shionogi & Co., Ltd., priority 2003, dated 2009):
# pEC50: −log10 of the molar value.
# Biological target: T1, human TPO receptor (hTPOR) (Homo sapiens, UniProt P40238)
# T1 construct: expressed in transfected cells; host or cells: BaF-B03 (murine IL-3 dependent cell line)
# T1 sequence (P40238 26-635): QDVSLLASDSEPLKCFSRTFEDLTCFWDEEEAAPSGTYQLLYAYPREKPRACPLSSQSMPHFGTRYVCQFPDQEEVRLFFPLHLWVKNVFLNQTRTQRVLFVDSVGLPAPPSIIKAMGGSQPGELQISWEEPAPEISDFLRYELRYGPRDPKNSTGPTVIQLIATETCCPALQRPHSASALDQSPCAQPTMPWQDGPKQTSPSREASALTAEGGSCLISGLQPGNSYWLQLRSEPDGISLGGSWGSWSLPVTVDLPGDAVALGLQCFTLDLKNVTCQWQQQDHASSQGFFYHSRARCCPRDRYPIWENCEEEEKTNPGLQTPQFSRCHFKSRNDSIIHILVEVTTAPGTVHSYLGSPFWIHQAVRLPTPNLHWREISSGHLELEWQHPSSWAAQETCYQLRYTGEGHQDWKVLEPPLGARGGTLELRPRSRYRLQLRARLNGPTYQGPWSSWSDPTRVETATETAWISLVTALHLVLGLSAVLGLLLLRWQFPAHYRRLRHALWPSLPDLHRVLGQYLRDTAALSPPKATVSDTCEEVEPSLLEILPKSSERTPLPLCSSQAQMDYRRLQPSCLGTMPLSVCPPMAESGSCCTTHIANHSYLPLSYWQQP
# Assay: Thrombopoietic activity: proliferation of TPO dependent BaF/hTPOR cells (WST-1, absorbance at 450 nm)
# Format: cell-based
# Details: 20 h + 4 h WST-1, ED50 = half concentration of the concentration showing the maximum thrombopoietic activity, Table 1
# In short: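 Proliferation read-out: WST-1 absorbance at 450 nm after 20 h compound exposure plus 4 h reagent, using IL-3-deprived BaF/hTPOR cells (5×10^4 per well) dependent on human TPO receptor signalling. ED50 defined as half the concentration producing maximal activity.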
row,SMILES,pEC50
1,"CCCCCCCC(OC)c1cccc(-c2csc(NC(=O)c3cc(F)c(C=C(C)C(=O)O)c(F)c3)n2)c1F (stereo not shown) [Compound B25, 3-(2,6-difluoro-4-{4-[2-fluoro-3-(1-methyloxyoctyl)phenyl]thiazol-2-ylcarbamoyl}phenyl)-2-methylacrylic acid]",9.03
2,"CCCCCCOC(CC)c1cccc(-c2csc(NC(=O)c3cc(F)c(C=C(C)C(=O)O)c(F)c3)n2)c1F (stereo not shown) [Compound B38, 3-(2,6-difluoro-4-{4-[2-fluoro-3-(1-n-hexyloxypropyl)phenyl]thiazol-2-ylcarbamoyl}phenyl)-2-methylacrylic acid]",9.21
3,"CCCCCCCC(OC)c1cccc(-c2csc(NC(=O)c3cc(Cl)c(C=C(C)C(=O)O)c(Cl)c3)n2)c1F (stereo not shown) [Compound B69, 3-(2,6-dichloro-4-{4-[2-fluoro-3-(1-methyloxyoctyl)phenyl]thiazol-2-ylcarbamoyl}phenyl)-2-methylacrylic acid]",9.11
4,"CCC(CC)COCCCc1cccc(-c2csc(NC(=O)c3cc(Cl)c(C=C(C)C(=O)O)c(Cl)c3)n2)c1F [Compound B88, 3-[2,6-dichloro-4-(4-[3-[3-(2-ethylbutyloxy)propyl]-2-fluorophenyl]thiazol-2-ylcarbamoyl)phenyl]-2-methylacrylic acid]",8.51
5,"CCCCCCCCCC(OC)c1cccc(-c2csc(NC(=O)c3cc(F)c(/C=C(\C)C(=O)O)c(F)c3)n2)c1OCC (stereo not shown) [Compound B2099, (E)-3-(4-{4-[2-ethyloxy-3-(1-methyloxydecyl)phenyl]thiazol-2-ylcarbamoyl}-2,6-difluorophenyl)-2-methylacrylic acid]",8.54
6,"CCCOC(CCC)c1cccc(-c2csc(NC(=O)c3cc(Cl)c(C=C(C)C(=O)O)c(Cl)c3)n2)c1F (stereo not shown) [Compound B78, 3-(2,6-dichloro-4-{4-[2-fluoro-3-(1-n-propyloxybutyl)phenyl]thiazol-2-ylcarbamoyl}phenyl)-2-methylacrylic acid]",9.01
7,"COC(CCc1cccc2c1CCc1sc(NC(=O)c3cc(F)c(C=C(C)C(=O)O)c(F)c3)nc1-2)C(C)(C)C (stereo not shown) [Compound A4, 3-{2,6-difluoro-4-[4,5-dihydro-6-(3-methyloxy-4,4-dimethylpentyl)naphtho[1,2-d]thiazol-2-ylcabamoyl]phenyl}-2-methylacrylic acid]",8.74
8,"CCCCCCOCCCc1cccc(-c2csc(NC(=O)c3cc(Cl)c(C=C(C)C(=O)O)c(Cl)c3)n2)c1F [Compound B96, 3-(2,6-dichloro-4-{4-[2-fluoro-3-(3-n-hexyloxypropyl)phenyl]thiazol-2-ylcarbamoyl)phenyl]-2-methylacrylic acid]",9.11
9,"CCCCCCCOc1cccc(-c2csc(NC(=O)c3cc(Cl)c(/C=C(\OC)C(=O)O)c(Cl)c3)n2)c1OC [Compound B2001, (Z)-3-{2,6-dichloro-4-[4-(3-heptyloxy-2-methyloxyphenyl)thiazol-2-ylcarbamoyl]phenyl}-2-methyloxyacrylic acid]",7.71
10,"CCCCC(OCC)c1cccc(-c2csc(NC(=O)c3cc(Cl)c(C=C(C)C(=O)O)c(Cl)c3)n2)c1F (stereo not shown) [Compound B71, 3-(2,6-dichloro-4-{4-[3-(1-ethyloxypentyl)-2-fluorophenyl]thiazol-2-ylcarbamoyl}phenyl)-2-methylacrylic acid]",9.00
11,CCCCCOCc1cccc(-c2csc(NC(=O)c3cc(F)c(/C=C(\C)C(=O)O)c(F)c3)n2)c1OC [Compound B1884],7.77
12,"CCCCCCCCCC(OC)c1cccc(-c2csc(NC(=O)c3cc(Cl)c(C=C(C)C(=O)O)c(Cl)c3)n2)c1F (stereo not shown) [Compound B61, 3-(2,6-dichloro-4-{4-[2-fluoro-3-(1-methyloxydecyl)phenyl]thiazol-2-ylcarbamoyl}phenyl)-2-methylacrylic acid]",9.12
13,"COC(c1cccc(-c2csc(NC(=O)c3cc(Cl)c(C=C(C)C(=O)O)c(Cl)c3)n2)c1F)C(C)(C)C (stereo not shown) [Compound B64, 3-(2,6-dichloro-4-{4-[2-fluoro-3-(1-methyloxy-2,2-dimethylpropyl)phenyl]thiazol-2-ylcarbamoyl}phenyl)-2-methylacrylic acid]",8.92
14,"CCC(CC)COCc1cccc(-c2csc(NC(=O)c3cc(Cl)c(/C=C(\OC)C(=O)O)c(Cl)c3)n2)c1OC [Compound B2026, (Z)-3-(2,6-dichloro-4-{4-[3-(2-ethylbutyloxymethyl)-2-methyloxyphenyl]thiazol-2-ylcarbamoyl}phenyl)-2-methyloxyacrylic acid]",7.90
15,"CCCc1cccc2c1OCc1sc(NC(=O)c3cc(Cl)c(/C=C(\C)C(=O)O)c(Cl)c3)nc1-2 [Compound A1311, (E)-3-[2,6-dichloro-4-(6-propyl-4H-chromeno[4,3-d]thiazol-2-ylcabamoyl)phenyl]-2-methylacrylic acid]",8.05
16,"CCCCOCCCc1cccc(-c2csc(NC(=O)c3cc(Cl)c(/C=C(\C)C(=O)O)c(Cl)c3)n2)c1OC [Compound B1124, (E)-3-(4-{4-[3-(3-butyloxypropyl)-2-methyloxyphenyl]thiazol-2-ylcarbamoyl}-2,6-dichlorophenyl)-2-methylacrylic acid]",7.80
17,COc1c(COCCCC(C)C)cccc1-c1csc(NC(=O)c2cc(Cl)c(/C=C(\C)C(=O)O)c(Cl)c2)n1 [Compound B1940],7.73
18,"CCCCCCOCCc1cccc(-c2csc(NC(=O)c3cc(F)c(/C=C(\OC)C(=O)O)c(F)c3)n2)c1OC [Compound B1927, (Z)-3-(2,6-difluoro-4-{4-[3-(2-hexyloxyethyl)-2-methyloxyphenyl]thiazol-2-ylcarbamoyl)phenyl)-2-methyloxyacrylic acid]",7.71
19,"CCCCCCOCc1cccc(-c2csc(NC(=O)c3cc(Cl)c(/C=C(\C)C(=O)O)c(Cl)c3)n2)c1OC [Compound B1993, (E)-3-{2,6-dichloro-4-[4-(3-hexyloxymethyl-2-methyloxyphenyl)thiazol-2-ylcarbamoyl]phenyl}-2-methylacrylic acid]",7.86
20,"CCCCCC(OC)c1cccc(-c2csc(NC(=O)c3cc(F)c(/C=C(\C)C(=O)O)c(F)c3)n2)c1OC (stereo not shown) [Compound B347, (E)-3-(2,6-difluoro-4-{4-[2-methyloxy-3-(1-methyloxyhexyl)phenyl]thiazol-2-ylcarbamoyl}phenyl)-2-methylacrylic acid]",7.73
21,"CCCCCCOCCCc1cccc(-c2csc(NC(=O)c3cc(F)c(C=C(C)C(=O)O)c(F)c3)n2)c1F [Compound B46, 3-(2,6-difluoro-4-{4-[2-fluoro-3-(3-n-hexyloxypropyl)phenyl]thiazol-2-ylcarbamoyl}phenyl)-2-methylacrylic acid]",8.89
22,"CC(=Cc1c(F)cc(C(=O)Nc2nc(-c3cccc(CCCOCCC(C)(C)C)c3F)cs2)cc1F)C(=O)O [Compound B40, 3-[2,6-difluoro-4-(4-{3-[3-(3,3-dimethylbutyloxy)propyl]-2-fluorophenyl}thiazol-2-ylcarbamoyl)phenyl]-2-methylacrylic acid]",9.06
23,"CCCCCCCOCCc1cccc(-c2csc(NC(=O)c3cc(F)c(/C=C(\C)C(=O)O)c(F)c3)n2)c1OC [Compound B1952, (E)-3-(2,6-difluoro-4-{4-[3-(2-heptyloxyethyl)-2-methyloxyphenyl]thiazol-2-ylcarbamoyl}phenyl)-2-methylacrylic acid]",7.99
24,"CCCCCOC(CC)c1cccc(-c2csc(NC(=O)c3cc(F)c(C=C(C)C(=O)O)c(F)c3)n2)c1F (stereo not shown) [Compound B19, 3-(2,6-difluoro-4-{4-[2-fluoro-3-(1-n-pentyloxypropyl)phenyl]thiazol-2-ylcarbamoyl}phenyl)-2-methylacrylic acid]",9.14
25,"C/C(=C\c1c(Cl)cc(C(=O)Nc2nc3c(s2)COc2c(CCC(C)(C)C)cccc2-3)cc1Cl)C(=O)O [Compound A1317, (E)-3-{2,6-dichloro-4-[6-(3,3-dimethylbutyl)-4H-chromeno[4,3-d]thiazol-2-ylcabamoyl]phenyl}-2-methylacrylic acid]",7.82

# Same assay, conditions: 20 h + 4 h WST-1, ED50 = half concentration of the concentration showing the maximum thrombopoietic activity, Table 2
row,SMILES,pEC50
1,"CO/C(=C\c1c(Cl)cc(C(=O)Nc2nc(-c3cccc(CCCOCC(C)(C)C)c3)c(OC)s2)cc1Cl)C(=O)O [Compound B1901, (Z)-3-[2,6-dichloro-4-(4-{3-[3-(2,2-dimethylpropyloxy)propyl]phenyl}-5-methyloxythiazol-2-ylcarbamoyl)phenyl]-2-methyloxyacrylic acid]",7.62
2,"CCC(CC)COCCCc1cccc(-c2csc(NC(=O)c3cc(Cl)c(/C=C(\C)C(=O)O)c(Cl)c3)n2)c1OC [Compound B1849, (E)-3-[2,6-dicholoro-4-(4-{3-[3-(2-ethylbutyloxy)propyl]-2-methyloxyphenyl}thiazol-2-ylcarbamoyl)phenyl]-2-methylacrylic acid]",7.65
3,"CO/C(=C\c1c(Cl)cc(C(=O)Nc2nc(-c3cccc(COCCC(C)(C)C)c3OC)cs2)cc1Cl)C(=O)O [Compound B1937, (Z)-3-(2,6-dichloro-4-{4-[3-(3,3-dimethylbutyloxymethyl)-2-methyloxyphenyl]thiazol-2-ylcarbamoyl}phenyl)-2-methyloxyacrylic acid]",7.64
